In patent US20080318938A1, “METHODS FOR TREATING ABERRANT CELL PROLIFERATION DISORDERS” (priority 2007, published 2008):

Legend:
Test in all cases: Inhibition of cell proliferation (MTT)
Format in all cases: cell-based
[1] = tested on: 786-0; conditions: Homo sapiens; 786-0, Renal; 48 hours
Method: (§1) Inhibition of cell proliferation is determined in human tumor cell lines. Innoculation density and doubling times for specific cell lines are listed at World Wide Web URL “dtp.nci.nih.gov/docs/misc/common_files/cell_list.html.”
(§2) • 1. Plate adherent cells the day before starting the experiment in 180 μl growth media (see list hereafter). • 2. Day of experiment, count and plate suspension cells in 180 μl growth media (see list on next page). • 3. Make 10× Compound, vehicle, and chemotherapeutic cocktail • a. Compound (1× to 10×) • i. 10 μM Compound to 100 μM • ii. 3 μM Compound to 30 μM • iii. 1 μM Compound to 10 μM • iv. 0.3 μM Compound to 3 μM • v. 0.1 μM Compound to 1 μM • b. Vehicle • i. PBS, equivalent to the volume used for 10 μM Compound (1× is ˜0.06% PBS) • c. Chemotherapeutic cocktail (1× to 10×): • i. 1 μM Velcade to 10 μM • ii. 100 μM Etoposide to 1 mM • iii. 20 μM Taxol to 200 μM • 4. Add 20 μl of the 10× compound/vehicle/chemotherapeutic cocktail to cells. • 5. Incubate at 37° C., 5% CO2 for 48 hours. • 6. Aspirate media. For suspension cells, spin plate at 1500 RPM for 10 minutes. Use a multichannel pipettor to slowly remove media. • 7. Add 200 μl of Thiazolyl Blue Tetrazolium Bromide (MTT) to each well: 0.863 mg/ml MTT in growth media.
(§3) Proliferation of several cancer cells was inhibited by compound TA1-1B (which is a particular mixture of the isomers represented by TA1-1A), as shown in the following table (Table 1). The value EC50 is the amount of Compound TA1-1B that results in 50% inhibition of proliferation of the indicated cell type.

[2] = tested on: UACC-257; conditions: Homo sapiens; UACC-257, Melanoma; 48 hours
Method: as §1, §2, §3

[3] = tested on: A3; conditions: Homo sapiens; A3, Leukemia; 48 hours
Method: as §1, §2, §3

[4] = tested on: BT-549; conditions: Homo sapiens; BT-549, Breast; 48 hours
Method: as §1, §2, §3

[5] = tested on: SF-268; conditions: Homo sapiens; SF-268, CNS; 48 hours
Method: as §1, §2, §3

[6] = tested on: GDM-1; conditions: Homo sapiens; GDM-1, Leukemia; 48 hours
Method: as §1, §2, §3

[7] = tested on: PC-3; conditions: Homo sapiens; PC-3, Prostate; 48 hours
Method: as §1, §2, §3

[8] = tested on: THP-1; conditions: Homo sapiens; THP-1, Leukemia; 48 hours
Method: as §1, §2, §3

[9] = tested on: M14; conditions: Homo sapiens; M14, Melanoma; 48 hours
Method: as §1, §2, §3

[10] = tested on: D1-1; conditions: Homo sapiens; D1-1, Leukemia; 48 hours
Method: as §1, §2, §3

[11] = tested on: HCT-15; conditions: Homo sapiens; HCT-15, Colon; 48 hours
Method: as §1, §2, §3

[12] = tested on: Jgamma-1; conditions: Homo sapiens, J.gamma1; Jgamma-1, Leukemia; 48 hours
Method: as §1, §2, §3

[13] = tested on: Karpas299; conditions: Homo sapiens, KARPAS-299; Karpas299, Lymphoma; 48 hours
Method: as §1, §2, §3

[14] = tested on: NC37; conditions: Homo sapiens, NC-37; NC37, Lymphoma; 48 hours
Method: as §1, §2, §3

[15] = tested on: NCI-H522; conditions: Homo sapiens; NCI-H522, Non Small Cell Lung; 48 hours
Method: as §1, §2, §3

[16] = tested on: UO-31; conditions: Homo sapiens; UO-31, Renal; 48 hours
Method: as §1, §2, §3

[17] = tested on: MC116; conditions: Homo sapiens; MC116, Lymphoma; 48 hours
Method: as §1, §2, §3

[18] = tested on: DOHH2; conditions: Homo sapiens, DOHH-2; DOHH2, Lymphoma; 48 hours
Method: as §1, §2, §3

[19] = tested on: SNB-75; conditions: Homo sapiens; SNB-75, CNS; 48 hours
Method: as §1, §2, §3

[20] = tested on: SN12C; conditions: Homo sapiens, Renal, 48 hours
Method: as §1, §2, §3

[21] = tested on: HuT102; conditions: Homo sapiens, HuT-102; HuT102, Lymphoma; 48 hours
Method: as §1, §2, §3

[22] = tested on: IGROV1; conditions: Homo sapiens, IGROV-1; IGROV1, Ovarian; 48 hours
Method: as §1, §2, §3

[23] = tested on: RS4-11; conditions: Homo sapiens; RS4-11, Leukemia; 48 hours
Method: as §1, §2, §3

[24] = tested on: RPMI-6666; conditions: Homo sapiens; RPMI-6666, Lymphoma; 48 hours
Method: as §1, §2, §3

[25] = tested on: NK92MI; conditions: Homo sapiens, Lymphoma, 48 hours
Method: as §1, §2, §3

[26] = tested on: MEG-01; conditions: Homo sapiens; MEG-01, Leukemia; 48 hours
Method: as §1, §2, §3

[27] = tested on: HCC-2998; conditions: Homo sapiens; HCC-2998, Colon; 48 hours
Method: as §1, §2, §3

[28] = tested on: JM1; conditions: Homo sapiens; JM1, Lymphoma; 48 hours
Method: as §1, §2, §3

[29] = tested on: MALME-3M; conditions: Homo sapiens, Melanoma, 48 hours
Method: as §1, §2, §3

[30] = tested on: Kasumi-1; conditions: Homo sapiens; Kasumi-1, Leukemia; 48 hours
Method: as §1, §2, §3

## CN1CCC[C@H]1CCNC(=O)c1cn2c3c(c(N4CCC(c5cnccn5)C4)c(F)cc3c1=O)Oc1cc3ccccc3cc1-2 (stereo partly drawn) [TA1-1B]
[1]
  EC50: 4340 nM
[2]
  EC50: 5100 nM
[3]
  EC50: 3630 nM
[4]
  EC50: 1800 nM
[5]
  EC50: 1230 nM
[6]
  EC50: 1260 nM
[7]
  EC50: 4960 nM
[8]
  EC50: 3180 nM
[9]
  EC50: 4980 nM
[10]
  EC50: 4160 nM
[11]
  EC50: 1510 nM
[12]
  EC50: 1720 nM
[13]
  EC50: 3920 nM
[14]
  EC50: 1260 nM
[15]
  EC50: 1500 nM
[16]
  EC50: 2380 nM
[17]
  EC50: 3870 nM
[18]
  EC50: 1560 nM
[19]
  EC50: 2310 nM
[20]
  EC50: 4160 nM
[21]
  EC50: 1050 nM
[22]
  EC50: 4440 nM
[23]
  EC50: 550 nM
[24]
  EC50: 1590 nM
[25]
  EC50: 1300 nM
[26]
  EC50: 6000 nM
[27]
  EC50: 2540 nM
[28]
  EC50: 2230 nM
[29]
  EC50: 5090 nM
[30]
  EC50: 2050 nM
